Laboratory results reported in US20240285625A1, “ERK1/2 AND KRAS G12C INHIBITORS COMBINATION THERAPY” (Erasca, Inc., priority 2021, published 2024).

Assay: Body weight loss in the CO-04-0310 PDX study
Type: in vivo, Balb/c nude mice
Conditions: CO-04-0310 study; Compound 1 30 mg/kg/dose BID monotherapy; DietGel starting on treatment day 14
Protocol: Treatment started on the day after randomization. The treatment start day was denoted as treatment day 1. Mice were dosed by oral administration of vehicle control solution or monotherapy treatments of Compound 1 at 30 mg/kg/dose BID or sotorasib at 100 mg/kg QD. An additional group received combination treatment of Compound 1 at 30 mg/kg/dose BID or sotorasib at 100 mg/kg QD. BID was dosed at an 8-hour interval. In the combination group, sotorasib was dosed first and Compound 1 was dosed one hour later. In addition to regular food and water supply. DietGel (Ready Jelly R. 76A. Ready Biotechnology (ShenZhen) Co., Ltd.) was added in cages where at least two mice in a treatment group started showing >10% BWL at any measurement day. DietGel was supplied through the remaining study period after the addition of DietGel. Per this practice, mice in the Compound 1 at 30 mg/kg/dose BID monotherapy treatment group were supplied with DictGel food starting on treatment day 14. The study was terminated on treatment day 28 as defined in the study protocol.

## Cc1cnc(NC2CCOCC2)nc1-n1cnc(C(=O)N[C@H](CN)c2cc(F)cc(Cl)c2)c1 [Compound 1, (S)—N-(2-amino-1-(3-chloro-5-fluorophenyl)ethyl)-1-(5-methyl-2-((tetrahydro-2H-pyran-4-yl)amino)pyrimidin-4-yl)-1H-imidazole-4-carboxamide]
  BWL (at least two mice in treatment group; DietGel supplied): > 10%
